Source: patent US11731943B2, “Therapeutic compounds, compositions and methods of use thereof” (priority 2016, dated 2023)
Read-outs that look alike come from different tables or passages of the source.

What was measured:
[1] = molecular target: isolated recombinant JAK1 kinase domain (Homo sapiens (Human), UniProt P23458); assay: JAK1 enzyme assay (Caliper LabChip, Ki); type: biochemical
Method: (§1) JAK Enzyme Assays were carried out as follows:
(§2) The activity of the isolated recombinant JAK1 and JAK2 kinase domain was measured by monitoring phosphorylation of a peptide derived from JAK3 (Val-Ala-Leu-Val-Asp-Gly-Tyr-Phe-Arg-Leu-Thr-Thr, fluorescently labeled on the N-terminus with 5-carboxyfluorescein) using the Caliper LabChip® technology (Caliper Life Sciences, Hopkinton, Mass.). […] Reactions were incubated at 22° C. in 384-well polypropylene microtiter plates for 30 minutes and then stopped by addition of 25 μL of an EDTA containing solution (100 mM HEPES buffer (pH 7.2), 0.015% Brij-35, 150 mM EDTA), resulting in a final EDTA concentration of 50 mM. After termination of the kinase reaction, the proportion of phosphorylated product was determined as a fraction of total peptide substrate using the Caliper LabChip® 3000 according to the manufacturer's specifications. Ki values were then determined using the Morrison tight binding model (Morrison, J. F., Biochim. Biophys. Acta. 185:269-296 (1969); William, J. W. and Morrison, J. F., Meth. Enzymol., 63:437-467 (1979)) modified for ATP-competitive inhibition [Ki=Ki,app/(1+[ATP]/Km,app)].

[2] = molecular target: isolated recombinant JAK2 kinase domain (Homo sapiens (Human), UniProt O60674); assay: JAK2 enzyme assay (Caliper LabChip, Ki); type: biochemical
Sequence of isolated recombinant JAK2 kinase domain (O60674 849-1124): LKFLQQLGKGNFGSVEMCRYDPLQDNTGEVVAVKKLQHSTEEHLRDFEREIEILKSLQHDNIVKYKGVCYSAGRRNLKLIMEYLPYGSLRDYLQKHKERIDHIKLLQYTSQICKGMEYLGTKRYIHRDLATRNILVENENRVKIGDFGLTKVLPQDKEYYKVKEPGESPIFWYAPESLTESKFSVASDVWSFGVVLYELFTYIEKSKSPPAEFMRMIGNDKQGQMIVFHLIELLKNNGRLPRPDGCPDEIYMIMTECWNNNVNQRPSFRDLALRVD
Method: as §1
as §2, with “([…]” for “(Val-Ala-Leu-Val-Asp-Gly-Tyr-Phe-Arg-Leu-Thr-Thr,”, “specifications.” for “specifications. Ki values were then determined using the Morrison tight binding model (Morrison, J. F., Biochim. Biophys. Acta. 185:269-296 (1969); William, J. W. and Morrison, J. F., Meth. Enzymol., 63:437-467 (1979)) modified for ATP-competitive inhibition [Ki=Ki,app/(1+[ATP]/Km,app)].”

Sequence of isolated recombinant JAK1 kinase domain (P23458 875-1153): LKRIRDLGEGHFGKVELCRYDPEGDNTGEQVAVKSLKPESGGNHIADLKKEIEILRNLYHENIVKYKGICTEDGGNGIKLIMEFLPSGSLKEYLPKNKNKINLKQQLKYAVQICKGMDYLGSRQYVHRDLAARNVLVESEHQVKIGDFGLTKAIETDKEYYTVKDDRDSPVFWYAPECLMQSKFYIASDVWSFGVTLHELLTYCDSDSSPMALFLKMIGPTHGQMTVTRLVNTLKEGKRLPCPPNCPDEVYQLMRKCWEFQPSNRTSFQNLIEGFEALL

## N#CCC1(n2cc(C(N)=O)c(NC(=O)[C@H]3CC34CCC4)n2)CCN(CC(F)(F)F)CC1 [Example 31]
[1]; read-out: JAK1 Ki
  Ki: 0.0964 µM
[2]
  Ki: 0.189 µM

## N#CCC1(n2cc(C(N)=O)c(NC(=O)C3CC3)n2)CCN(C(=O)CC(F)(F)F)CC1 [Example 170, 1-[4-(cyanomethyl)-1-(3,3,3-trifluoropropanoyl)-4-piperidyl]-3-(cyclopropanecarbonylamino) pyrazole-4-carboxamide]
[1]; read-out: JAK1 Ki
  Ki: 0.0067 µM
[2]
  Ki: 0.0709 µM

## N#CCC1(n2cc(C(N)=O)c(NC(=O)C3CC3)n2)CCN(Cc2ccccc2)CC1 [Example 40]
[1]; read-out: JAK1 Ki
  Ki: 0.0079 µM
[2]
  Ki: 0.0967 µM

## N#CCC1(n2cc(C(N)=O)c(NC(=O)C3CC3)n2)CCN(Cc2ccccc2C(F)(F)F)CC1 [Example 61]
[1]; read-out: JAK1 Ki
  Ki: 0.0083 µM
[2]
  Ki: 0.118 µM

## N#CCC1(n2cc(C(N)=O)c(NC(=O)[C@@H]3C[C@@H]3F)n2)CCN(CC(F)(F)F)CC1 [Example 28]
[1]; read-out: JAK1 Ki
  Ki: 0.0121 µM
[2]
  Ki: 0.0309 µM

## N#CCC1(n2cc(C(N)=O)c(NC(=O)C3CC3)n2)CCC2(CC1)COC2 [Example 5, 1-(7-(Cyanomethyl)-2-oxaspiro[3.5]nonan-7-yl)-3-(cyclopropanecarboxamido)-1H-pyrazole-4-carboxamide]
[1]; read-out: JAK1 Ki
  Ki: 0.0228 µM
[2]
  Ki: 0.189 µM

## CS(=O)(=O)Nc1ccc(CN2CCC(CC#N)(n3cc(C(N)=O)c(NC(=O)C4CC4)n3)CC2)cc1 [Example 46]
[1]; read-out: JAK1 Ki
  Ki: 0.0414 µM
[2]
  Ki: 0.284 µM

## CN(CC(F)(F)F)[C@H]1CC[C@@](CC#N)(n2cc(C(N)=O)c(NC(=O)C3CC3)n2)CC1 [Example 130]
[1]
  Ki: > 0.562 µM
[2]
  Ki: > 0.319 µM

## N#CCC1(n2cc(C(N)=O)c(NC(=O)C3CC34CC4)n2)CCN(CC(F)(F)F)CC1 (stereo not drawn) [Example 25]
[1]; read-out: JAK1 Ki
  Ki: 0.0812 µM
[2]
  Ki: > 0.319 µM

## N#CC[C@]1(n2cc(C(N)=O)c(NC(=O)C3CC3)n2)CC[C@@H](NC2CCOCC2)CC1 [Example 104]
[1]
  Ki: > 0.562 µM
[2]
  Ki: > 0.319 µM

## N#CCC1(n2cc(C(N)=O)c(NC(=O)[C@H]3C[C@@H]3C3CC3)n2)CCN(CC(F)(F)F)CC1 (stereo in doubt) [Example 177, 1-[4-(cyanomethyl)-1-(2,2,2-trifluoroethyl)-4-piperidyl]-3-[(2-cyclopropylcyclopropanecarbonyl)amino]pyrazole-4-carboxamide]
[1]; read-out: JAK1 Ki
  Ki: 0.0187 µM
[2]
  Ki: 0.226 µM

## N#CC[C@]1(n2cc(C(N)=O)c(NC(=O)C3CC3)n2)CC[C@H](NCc2ccc(Cl)cc2)CC1 [Example 119]
[1]
  Ki: 0.437 µM
[2]
  Ki: > 0.319 µM

## N#CC[C@]1(n2cc(C(N)=O)c(NC(=O)C3CC3)n2)CC[C@@H](NCc2ccc(Cl)cc2)CC1 [Example 120]
[1]
  Ki: 0.012 µM
[2]
  Ki: 0.115 µM

## N#CCC1(n2cc(C(N)=O)c(NC(=O)C3CC3)n2)CCN(CCc2ccccc2)CC1 [Example 183, 1-[4-(cyanomethyl)-1-(2-phenylethyl)-4-piperidyl]-3-(cyclopropanecarbonylamino) pyrazole-4-carboxamide]
[1]; read-out: JAK1 Ki
  Ki: 0.0883 µM
[2]
  Ki: > 0.319 µM

## N#CC[C@]1(n2cc(C(N)=O)c(NC(=O)C3CC3)n2)CC[C@H](N2CC(O)(C(F)(F)F)C2)CC1 [Example 138, 1-[1-(cyanomethyl)-4-[3-hydroxy-3-(trifluoromethyl)azetidin-1-yl]cyclohexyl]-3-(cyclopropanecarbonylamino) pyrazole-4-carboxamide]
[1]; read-out: JAK1 Ki
  Ki: > 0.562 µM
[2]
  Ki: > 0.319 µM

## N#CCC1(n2cc(C(N)=O)c(NC(=O)C3CC3)n2)CCN(C(=O)C2CC(F)(F)C2)CC1 [Example 168, 1-[4-(cyanomethyl)-1-(3,3-difluorocyclobutanecarbonyl)-4-piperidyl]-3-(cyclopropanecarbonylamino) pyrazole-4-carboxamide]
[1]; read-out: JAK1 Ki
  Ki: 0.0075 µM
[2]
  Ki: 0.0933 µM

## N#CCC1(n2cc(C(N)=O)c(NC(=O)C3CC3)n2)CCN(Cc2ccc(-n3ccnc3)cc2)CC1 [Example 85]
[1]; read-out: JAK1 Ki
  Ki: 0.0451 µM
[2]
  Ki: 0.17 µM

## N#CCC1(n2cc(C(N)=O)c(NC(=O)C3CC3)n2)CCN(Cc2cccc(NS(=O)(=O)c3ccccc3)c2)CC1 [Example 74]
[1]; read-out: JAK1 Ki
  Ki: 0.0061 µM
[2]
  Ki: 0.0587 µM
